From paper PMC7268545, “Development of a QPatch-Automated Electrophysiology Assay for Identifying TMEM16A Small-Molecule Inhibitors” (Assay and Drug Development Technologies, 2020)
Where two headings read alike, the source gives them in different places.

Columns and labels:
[1] = target: T1, human ANO1 channel (isoform acd) (Homo sapiens, UniProt Q5XXA6); experiment: QPatch-48 automated whole-cell electrophysiology, cumulative five-concentration single-addition protocol; assay type: cell-based
T1 construct: host or cells: HEK293T
T1 sequence (Q5XXA6 1-986): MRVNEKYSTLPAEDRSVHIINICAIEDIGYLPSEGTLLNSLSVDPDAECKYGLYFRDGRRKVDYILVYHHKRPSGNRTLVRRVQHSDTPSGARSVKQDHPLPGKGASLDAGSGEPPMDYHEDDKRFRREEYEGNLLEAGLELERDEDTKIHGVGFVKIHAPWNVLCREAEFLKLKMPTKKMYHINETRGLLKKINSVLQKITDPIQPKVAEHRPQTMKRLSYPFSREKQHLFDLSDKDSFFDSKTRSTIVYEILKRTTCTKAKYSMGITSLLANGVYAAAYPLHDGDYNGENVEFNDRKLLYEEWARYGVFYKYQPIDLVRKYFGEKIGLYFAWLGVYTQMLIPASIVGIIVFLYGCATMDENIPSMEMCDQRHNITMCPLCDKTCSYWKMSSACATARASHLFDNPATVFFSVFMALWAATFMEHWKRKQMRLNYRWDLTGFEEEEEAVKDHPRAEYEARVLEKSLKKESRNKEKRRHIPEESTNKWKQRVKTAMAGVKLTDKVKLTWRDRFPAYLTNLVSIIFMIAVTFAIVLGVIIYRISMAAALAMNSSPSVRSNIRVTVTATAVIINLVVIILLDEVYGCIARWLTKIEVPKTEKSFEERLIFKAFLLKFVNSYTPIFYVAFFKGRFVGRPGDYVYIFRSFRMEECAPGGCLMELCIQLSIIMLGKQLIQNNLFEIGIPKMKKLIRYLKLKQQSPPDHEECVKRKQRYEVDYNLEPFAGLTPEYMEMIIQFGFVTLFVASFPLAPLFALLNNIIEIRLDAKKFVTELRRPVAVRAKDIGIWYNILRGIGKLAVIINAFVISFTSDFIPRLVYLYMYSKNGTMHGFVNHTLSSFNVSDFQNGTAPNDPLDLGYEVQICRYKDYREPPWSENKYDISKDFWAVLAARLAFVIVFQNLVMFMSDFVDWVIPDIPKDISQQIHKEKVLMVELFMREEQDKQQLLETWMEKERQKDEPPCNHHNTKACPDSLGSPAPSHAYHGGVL
Protocol: HEK293T cells stably expressing the human ANO1 channel (isoform acd) were obtained from Scottish Biomedical. Cells were cultured in Sigma Minimum Essential Media containing 10% heat-inactivated fetal bovine serum, 1% penicillin/streptomycin, 1% glutamine, and […] geneticin. Cells were maintained in a 37°C, 5% CO2 environment. Cells were passaged every 3 days after they had reached ∼70% confluency and were not allowed to reach a density greater than 1–2 × 10^5 cells/cm^2 during routine culture. When subculturing, cells were rinsed once with room temperature 1 × phosphate-buffered saline (PBS; Ca^2+/Mg^2+ free), lifted with TrypLE Express, resuspended in prewarmed growth media, and counted using a hemocytometer. Cells were then plated in T150 flasks at a density of 2.9 × 10^4 cells/cm^2 to be either used in the assay or subcultured 72 h later.
On the day of the experiment, cells plated at a density of 2.9 × 10^4 cells/cm^2 72 h prior should be ∼70%–80% confluent. After cells were rinsed with prewarmed 1 × PBS (Ca^2+/Mg^2+ free), 3 mL of room temperature Detachin solution (Genlantis) was added to the flask and tilted gently two to three times to cover all the cells. Approximately 2 mL of Detachin was aspirated from the flask, leaving 1 mL on the cells, and then placed in the 37°C incubator for 5 min. Once cells had rounded up, the cells were dislodged by tapping the flask gently. The cells were then resuspended in 5 mL of warm serum-free media (EX-CELL ACF CHO Medium; Sigma; supplemented with 4 mM L-glutamine and 10 mM HEPES). A glass Pasteur pipette with a rubber bulb was then used to gently dissociate the cells from one another. Detachin will often leave cells as doublets or clumps, conditions that will disrupt seal formation on the QPatch. The cells were triturated ∼30 times and then, still using the Pasteur pipette, transferred into the QPatch Cell Hotel. This ensures that cells detach from one another leaving a suspension of single cells. A QStirrer was added to the Cell Hotel and the cell suspension was immediately placed on the QPatch device. Cells were utilized within 15 min.
Compounds were reconstituted in dimethyl sulfoxide (DMSO; Sigma) as 10 mM stock solutions. An automated dilution machine set up the microtiter plate (MTP ) by making 1:5 dilutions from a starting concentration of 30 μM. The concentration of DMSO was equal for all concentrations tested. Each MTP contained one row of a negative control (DMSO) and a positive control (benzbromarone). A total of eight compounds were run at a time. All compounds tested were produced in-house.
Whole-cell patch-clamp experiments were performed on a QPatch-48-automated electrophysiology platform (Sophion Biosciences) using the 48-channel, single-hole QPlate (resistance 2.0 ± 0.4 MΩ). The external buffer (in mM) was 140 NaCl, 4 KCl, 2 CaCl2, 1 MgCl2, 10 HEPES, 10 glucose, pH 7.4 (osmolarity = 300), and the internal buffer (in mM) was 110 CsCl, 20 TEA-Cl, 5.374 CaCl2, 1.75 MgCl2, 10 EGTA, 10 HEPES, 4 Na2ATP, pH 7.2 (osmolarity = 310). Cell positioning was set to a 5-s wait time with a positioning pressure of −60 mbar and a positioning time-out of 60 s. Resistance was set to increase 750% to ensure the success of positioning. To obtain a seal, pressure was increased to −70 mbar with an allowed pressure of −130 to −20 mbar and a holding pressure of −20 mbar. The holding potential was set to −70 mV and a 240-s time-out was set. The minimum seal resistance was set to 0.02 GΩ. To go whole cell, five 1-s suction pulses were applied starting at −180 mbar and increasing with −40 mbar increments with a pulse period of 10 s. Suction ramp and voltage zap protocols were kept standard, according to the default HEK cell settings. […] The suction ramp order of use was set to 2 with a ramp amplitude of −450 mbar and a ramp slope of 100 ms/mbar.
Once established in whole-cell configuration, cells are clamped to a holding potential (Vhold) of 0 mV.

TMEM16A [2] = target: T2, TMEM16A (Homo sapiens, UniProt Q5XXA6); experiment: fluorescence-based eYFP-quench assay; assay type: cell-based; conditions: iodide based assay
T2 construct: expressed in transfected cells; host or cells: HEK293T-derived, doxycycline-inducible
T2 sequence (Q5XXA6 1-986): T1 sequence (Q5XXA6 1-986)
From the text: This was possibly due to the eYFP assay being iodide based, since it has been reported that the anion passing through the pore has an effect on the open state of the channel.[12] It is also impossible to control the intracellular calcium level in this assay, which could explain the discrepancy in potency.[37] […] There is clearly a need for an automated electrophysiology assay for TMEM16A, whether looking at activators or inhibitors. TMEM16A has proven to be a difficult channel for electrophysiology, owing to its fast rundown, small currents, and the fact that it is a ligand-gated channel. In addition, fluoride, typically used in automated patch-clamp assays to improve seal quality, is known to decrease calcium salt solubility. Therefore, a fluoride-free internal solution is preferable when trying to control for a precise internal calcium concentration.

[3] = set-up: method as in PMID 28493701; conditions: cited from earlier work
TMEM16A [4] = target: T2, TMEM16A; set-up: method as in PMID 24642630; conditions: read-out: reported IC50; cited from earlier work
[5] = independent experiment 1, block at +100 mV, 250 nM internal free-calcium, read-out: IC50s for independent experiments 1
[6] = independent experiment 2, read-out: IC50s for independent experiments 2
[7] = independent experiment 3, read-out: IC50s for independent experiments 3
[8] = independent experiment 4, read-out: IC50s for independent experiments 4

| SMILES | IC50 [1, 5] | IC50 [1, 6] | IC50 [1, 7] | IC50 [1, 8] | other results |
| --- | --- | --- | --- | --- | --- |
| N#Cc1c(C(F)(F)F)cc(O)n2c1nc1ccccc12 [1PBC] | 1.18 µM | 0.85 µM | 1.1 µM | 1.57 µM | potency relative to that reported ([1]; versus reported value, ref 36 (mouse TMEM16A)): ~10 times; inhibition in eYFP-quench assay (TMEM16A [2]): 40% |
| COc1ccccc1/C=N/NC(=O)COc1ccc(Cl)cc1C [Ani9] |  |  |  |  | metabolic stability [3]: metabolically unstable |
| O=C(O)c1cccnc1Nc1cccc(C(F)(F)F)c1 [Niflumic acid] | 5.29 µM | 4.62 µM | 8.45 µM | 11.1 µM | IC50 ([1]; full plate format (with rundown), n = 3, read-out: IC50, full plate): 3.89 ± 0.11 µM; IC50 ([1]; independent experiment 5, read-out: IC50s for independent experiments 5): 7.71 µM; effect on deactivation rate ([1]; tail current deactivation): slower deactivation rate; IC50 (TMEM16A [4]): 12 µM |
| CCc1c(C)nc(SCC(=O)Nc2nc(-c3ccc(OC)cc3)cs2)[nH]c1=O [T16Ainh-A01] |  |  |  |  | block of current ([1]; maximum block seen): ≤ 40% |
